From patent US20240350402A1, “TOPICAL DRUG TREATMENT TO PREVENT OR REDUCE CORNEAL SCARRING” (The Cleveland Clinic Foundation, priority 2021, published 2024)

Legend:
[1] = tested on: rabbit corneas after -9D PRK; test: -9D PRK model: slit lamp central opacity (ImageJ); type: in vivo; settings: topical 0.8 mg/ml losartan six times a day, one month
Procedure: Animal procedures were approved by the Institutional Animal Care and Use Committee at the Cleveland Clinic Foundation and animals were treated in accordance with the tenets of the Association for Research in Vision and Ophthalmology Statement for the Use of Animals in Ophthalmic and Vision Research. Twelve female 12- to 15-week-old New Zealand white rabbits weighing 2.5 to 3 kg each were included. Starting 24 hours prior to surgery and continuing 5 days after PRK, all rabbits received 60 mL children's liquid acetaminophen (Johnson & Johnson, Ft. Washington, PA, USA) per 1 L of drinking water. One eye of each rabbit was randomly selected to have −9.0 D (on myopia scale) PRK and received 2 drops of topical 1% proparacaine hydrochloride (Alcon, Fort Worth, TX, USA) prior to the surgery. […]
At 1 month after PRK and treatment, each rabbit was placed under ketamine-xylazine general anesthesia and the eyes were dilated with two drops of 1% tropicamide (Akorn Co., Lake Forest, IL, USA) for 30 minutes. […] For each study cornea, the mean opacity in pixels in the central 3.5 mm of the PRK ablated zone was determined by using ImageJ 1.53a analysis software (National Institutes of Health, Bethesda, MD, USA). […]

[2] = tested on: rabbit corneas after Descemetorhexis; test: Descemetorhexis (DMR) model: standardized slit lamp photographs, ImageJ intensity of central opacity; type: in vivo; settings: one month; for intensity of opacity in a 2.5 mm circle of central cornea (ImageJ) vs DMR vehicle or DMR oral losartan groups: P<0.05
Procedure: All procedures involving animals were approved by the Institutional Animal Care and Use Committee (IACUC) at the Cleveland Clinic Foundation (Cleveland, OH, USA) and the Animal Care and Use Review Office of the Department of the Army (Fort Detrick, MD). All animals were treated in accordance with the tenets of the ARVO Statement for the Use of Animals in Ophthalmic and Vision Research. Twenty-eight 10- to 15-week-old female New Zealand White rabbits weighing 2.5 to 3.0 kg each were included in this study—four in each group.
The rabbits had general anaesthesia with 30 mg/kg ketamine hydrochloride and 5 mg/kg xylazine by IM injection. In addition, topical proparacaine hydrochloride 1% (Alcon, Ft Worth, TX, USA) was applied to each eye prior to the surgery. One cornea selected at random in each group either had sham surgery without Descemetorhexis or an 8 mm diameter central Descemet's membrane-endothelial excision. The time point of one month after surgery was selected for the study because myofibroblasts and fibrosis in the posterior cornea was maximal at this time point in a prior time course Descemetorhexis study (Sampaio et al., 2021). Descemetorhexis was performed as described in the prior study (Sampaio et al., 2021). Briefly, a wire lid speculum was placed into one eye of each rabbit and an 8 mm diameter gentian violet circle was marked on the epithelial surface for reference. A limbal entry incision was created with a 1.6 mm blade (Bausch and Lomb, Rochester, NY, USA) and 0.3 ml Healon OVD (Abbott Medical Optics Inc. Santa Ana, CA, USA) was injected into the anterior chamber. A reversed Sinskey hook (Katena, Denville, New Jersey, USA) was placed into the anterior chamber and an 8 mm diameter disc of Descemet's membrane and endothelium was excised underlying the 8 mm area previously marked on the anterior corneal surface, without a subsequent endothelial corneal transplant. No removal of Descemet's membrane or endothelium was performed in unwounded sham surgery eyes. Remaining Healon OVD was removed with a Simcoe irrigation and aspiration cannula (Bausch & Lomb, Storz, Rochester, NY, USA) and the anterior chamber was filled with balanced salt solution (BSS). A single 10-0 nylon suture was placed at the incision site to prevent leakage from the anterior chamber. One drop of ciprofloxacin (Alcon, Ft. Worth, TX, USA) was applied to the corneas immediately after surgery and four times a day until the epithelium entry wound healed at approximately 2 days.
The oral solution was prepared with 5 ml distilled water+50 ml ora-plus (suspending vehicle—Perrigo, Dublin, Ireland)+45 ml Ora-sweet (flavored syrup vehicle—Perrigo).
After one month of treatment, study eyes were dilated with two drops of 1% tropicamide (Akom Co., Lake Forest, IL) for thirty minutes. After general anaesthesia, the study eye in each rabbit had standardized slit lamp photographs at 20× magnification with a Haag Streit (Mason, OH, USA) BX900 slit lamp photography system using identical lighting position and intensity. For each study eye, the intensity of a 2.5 mm diameter central circle (not including the light reflex, examples shown in FIG. 1) was determined using ImageJ 1.53a analysis software. Statistical comparisons of the intensity of opacity was performed using the Kruskal-Wallis test followed by post-hoc Dunn's-Bonferroni test and p<0.05 was considered statistically significant

transparency of sham unwounded corneas ([2]; 0.4 mg/ml topical losartan six times per day): no effect | transparency of sham unwounded corneas ([2]; oral 5 mg/kg losartan three times per day): no effect
Compound: CCCCc1nc(Cl)c(CO)n1Cc1ccc(-c2ccccc2-c2nn[nH]n2)cc1 [losartan]
mean pixels of opacity within the analyzed 3.5 mm diameter area (mean±SEM) [1]: 77±3 pixels | intensity of opacity in the central cornea, topical vs topical and oral losartan ([2]; DMR): no significant difference | scarring fibrosis and neovascularization compared to DMR vehicle control corneas ([2]; DMR, oral 5 mg/kg three times a day): no difference | changes in corneal opacity and neovascularization vs topical losartan alone ([2]; DMR, topical 0.4 mg/ml six times per day + oral 5 mg/kg three times a day): not different | scarring fibrosis (slit lamp) ([2]; DMR, topical 0.4 mg/ml six times per day): overall decrease | intensity of opacity in a 2.5 mm circle of central cornea (ImageJ) vs DMR vehicle or DMR oral losartan groups ([2]; DMR, topical losartan and oral losartan): significant decrease | corneal neovascularization after Descemetorhexis ([2]; DMR, topical losartan): reduced | intensity of opacity in a 2.5 mm circle of central cornea (ImageJ) vs DMR vehicle or DMR oral losartan groups ([2]; DMR, topical losartan): significant decrease
